Measured values published in publication PMC9331150 (ACS Medicinal Chemistry Letters, 2022).
pEC50, pIC50: −log10 of the molar value.

Key:
HCoV 229E 3CL^pro = HCoV 229E 3CL^pro (Human coronavirus 229E, UniProt P0C6U2); assay: biochemical; assay type: biochemical
HCoV 229E = assay type: cell-based
SARS-CoV-2 3CL^pro = SARS-CoV-2 3CL^pro (Severe acute respiratory syndrome coronavirus 2, UniProt P0DTD1); assay type: biochemical
SARS-CoV-2 = conditions: read-out: EC50 against SARS-CoV-2; human bronchial epithelial cells; cited from earlier work
rhinovirus infection = conditions: cited from earlier work

Sequence of HCoV 229E 3CL^pro (P0C6U2 2966-3267): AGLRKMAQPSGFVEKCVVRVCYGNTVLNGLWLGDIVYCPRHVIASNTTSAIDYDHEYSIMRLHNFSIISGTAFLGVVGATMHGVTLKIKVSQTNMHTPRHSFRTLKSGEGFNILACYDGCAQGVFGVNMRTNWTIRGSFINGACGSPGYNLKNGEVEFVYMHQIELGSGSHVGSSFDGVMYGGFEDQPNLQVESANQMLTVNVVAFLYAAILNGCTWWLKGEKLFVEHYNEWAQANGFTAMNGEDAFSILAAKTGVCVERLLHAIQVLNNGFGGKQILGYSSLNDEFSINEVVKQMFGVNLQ

SMILES	pIC50 (HCoV 229E 3CL^pro)	fold less potent than nirmatrelvir (EC50, cell-based HCoV 229E) (HCoV 229E)	further results
CC(C)(C)[C@H](NC(=O)C(F)(F)F)C(=O)N1C[C@H]2[C@@H]([C@H]1C(=O)NCCC1CCNC1=O)C2(C)C (stereo partly drawn) [Compound 1]	< 4.00	–	–
CC(C)(C)[C@H](NC(=O)C(F)(F)F)C(=O)N1C[C@H]2[C@@H]([C@H]1C(=O)N[C@H](C=O)C[C@@H]1CCNC1=O)C2(C)C [Compound 2]	–	~4 fold	fold inhibitory activity improvement for HCoV 229E 3CL^pro compared to nirmatrelvir (HCoV 229E 3CL^pro; IC50 ratio vs nirmatrelvir): 9 fold
CC(C)(C)[C@H](NC(=O)C(F)(F)F)C(=O)N1C[C@H]2[C@@H]([C@H]1C(=O)N[C@H](CO)C[C@@H]1CCNC1=O)C2(C)C [Compound 3]	< 4.00	–	–
CC(C)(C)[C@H](NC(=O)C(F)(F)F)C(=O)N1C[C@H]2[C@@H]([C@H]1C(=O)N[C@@H](C[C@@H]1CCNC1=O)C(N)=O)C2(C)C [Compound 4]	< 4.00	–	–
COC(=O)[C@H](C[C@@H]1CCNC1=O)NC(=O)[C@@H]1[C@@H]2[C@H](CN1C(=O)[C@@H](NC(=O)C(F)(F)F)C(C)(C)C)C2(C)C [Compound 6]	< 4.00	–	–
CC(C)(C)[C@H](NC(=O)C(F)(F)F)C(=O)N1C[C@H]2[C@@H]([C@H]1C(=O)N[C@@H](C[C@@H]1CCNC1=O)C(=O)C(=O)NC1CC1)C2(C)C [Compound 8]	–	11 fold	fold improvement / more potent than nirmatrelvir (IC50, SARS-CoV-2 and HCoV 229E 3CL^pro) (SARS-CoV-2 3CL^pro): approximately 2 fold
CC(C)(C)[C@H](NC(=O)C(F)(F)F)C(=O)N1C[C@H]2[C@@H]([C@H]1C(=O)N[C@@H](C[C@@H]1CCNC1=O)C(=O)COCc1ccccc1)C2(C)C [Compound 9]	–	approximately 2 fold	fold less potent than nirmatrelvir against HCoV 229E 3CL^pro (IC50) (HCoV 229E 3CL^pro): 3 fold
CC(C)(C)[C@H](NC(=O)C(F)(F)F)C(=O)N1C[C@H]2[C@@H]([C@H]1C(=O)N[C@H](C#N)C[C@@H]1CCNC1=O)C2(C)C [Nirmatrelvir]	–	–	pEC50 (SARS-CoV-2): 7.12
CCOC(=O)/C=C/[C@H](C[C@@H]1CCNC1=O)NC(=O)[C@@H](CC(=O)[C@@H](NC(=O)c1cc(C)on1)C(C)C)Cc1ccc(F)cc1 [rupintrivir]	–	–	efficacy against rhinovirus infection in phase 2 clinical trials (rhinovirus infection): lack of efficacy
